Assay results: BindingDB's records for doi:10.1016/j.ejmech.2018.08.031 (Wenzhou Medical University, 2018)

Assay: Inhibition of recombinant human GST-tagged EGFR L858R mutant cytoplasmic domain expressed in baculovirus expression system using FAM-labeled peptide as substrate after 10 mins by mobility shift assay
`O=C(O)CCCC(=O)Nc1cc(N2CCOCC2)ncn1` showed an IC50 of 27 nM.
In the case of `CCNc1cc(Nc2cccc(Cl)c2)ncn1`, the IC50 is reported as over 10000 nM.
Compound `CCOC(=O)c1ccc(Nc2cc(Nc3cccc(OC)c3)ncn2)cc1` has an IC50 of 1740 nM.
With `COc1cccc(Nc2cc(Nc3ccc(S(N)(=O)=O)cc3)ncn2)c1` the IC50 was 1850 nM.
In the case of `CCOC(=O)c1ccc(Nc2cc(NC(=O)CCCC(=O)O)ncn2)cc1`, the IC50 is reported as 69 nM.
With `O=C(Nc1cc(Nc2ccc(Cl)cc2)ncn1)c1ccc(F)cc1` the IC50 was 1610 nM.
`CCOC(=O)CCCC(=O)Nc1cc(Nc2cccc(Cl)c2)ncn1` showed an IC50 of over 10000 nM.
Compound `O=C(O)CCCC(=O)Nc1cc(Nc2ccc(Cl)cc2)ncn1` has an IC50 of 1320 nM.
For `COc1ccc(OC)c(Nc2cc(Nc3ccc(F)cc3)ncn2)c1`, the IC50 was 230 nM.
`COc1ccc(OC)c(Nc2cc(Nc3ccc(N4CCN(C)CC4)cc3)ncn2)c1` showed an IC50 of 167 nM.
In the case of `COc1cc(Nc2cc(Nc3ccc(Cl)cc3)ncn2)cc(OC)c1OC`, the IC50 is reported as over 10000 nM.
For `COc1cccc(Nc2cc(NC(=O)CCCC(=O)O)ncn2)c1`, the IC50 was 31 nM.
Compound `COc1ccc(OC)c(Nc2cc(NC(=O)CCCC(=O)O)ncn2)c1` has an IC50 of over 10000 nM.
Work on `CCOC(=O)CCC(=O)Nc1cc(Nc2cccc(Br)c2)ncn1` yielded an IC50 of 1340 nM.
For `COc1ccc(OC)c(Nc2cc(Nc3ccc(S(N)(=O)=O)cc3)ncn2)c1`, the IC50 was 619 nM.
Work on `COc1ccc(OC)c(Nc2cc(NCCc3cccs3)ncn2)c1` yielded an IC50 of 167 nM.
For `O=C(O)CCCC(=O)Nc1cc(Nc2cccc(Br)c2)ncn1`, the IC50 was over 10000 nM.
Compound `CCOc1ccc(Nc2cc(NC(=O)c3ccccc3)ncn2)cc1` has an IC50 of 1210 nM.
In the case of `COc1ccc(Nc2cc(NC(=O)c3ccccc3)ncn2)cc1`, the IC50 is reported as 60 nM.
Compound `COc1cccc(Nc2cc(Nc3cccc(Cl)c3)ncn2)c1` has an IC50 of 1570 nM.
With `O=C(O)CCCC(=O)Nc1cc(Nc2ccccc2)ncn1` the IC50 was 183 nM.
